Source: US4230712A, “7-Methyl-8β-lower alkyl or 7-methyl-8-lower alkyl B/C cis or trans morphinan-6-one compounds and therapeutic method of treating pain employing them” (Miles Laboratories, Inc., priority 1978, dated 1980)
Entries after “also recorded” stand apart in the source; their conditions may differ. Counter-ions that a name gives are not always drawn.

Columns and labels:
rats = assay: narcotic antagonist activity, modified rat tail flick test against morphine; format: in vivo, male albino Wistar rats; set-up: AD50: unit not given here; conditions: for narcotic antagonist activity / analgesic (agonist)/narcotic antagonist activity profile: in words; for AD50: rat tail flick, dose inhibiting the morphine (ED80 dose s.c.) effect by 50%, IA @ dose = inactive at that dose
Description: (B) Narcotic antagonist activity in rats (modified rat tail flick test).
TEST B. EVALUATION OF NARCOTIC ANTAGONIST ACTIVITY
The narcotic antagonist effects of test compounds were determined by a modification of the rat tail flick procedure of Harris and Pierson (J. Pharmacol. Exp. Ther. 143:141 [1964]).
Male albino Wistar rats (100-120 g) were used for this study. A rat's tail is so placed so as to cover a photocell. Heat is applied by a lamp in a reflector with a timer being connected to the lamp and photocell so that the timer goes on when the light is turned on and is turned off when the photocell is uncovered. A rheostat, incorporated into a heating lamp is used to adjust the intensity of the light falling on the tail of the rat such that the rat's control reaction time is from two to four seconds. Animals with a control reaction time outside this range are rejected. The rheostat adjustment is made only if a significant proportion (more than 2 out of every 10 rats) of the reaction times are outside the range of two to four seconds. Groups of five rats were used each time, and two control times were determined at 60 and 30 minutes prior to subcutaneous injection of the drug.
Thirty minutes after the last control run the test drug was given intraperitoneally. This was followed ten minutes later by an ED80 dose of morphine subcutaneously. The animals were retested at 20 minutes after the morphine injection. Control animals were given vehicle and morphine only. The data were calculated as follows: [formula]
The data were plotted on log-probit paper and AD50 values, i.e., the dose required to inhibit the morphine effect by 50% within 95% confidence limits, were determined by the method of Litchfield and Wilcoxon.

mice = assay: acetic acid mouse writhing test (analgesic effect, s.c.); format: in vivo, male CD-1 mice; conditions: for analgesic activity: in words; for ED50: sc, mouse acetic acid writhing, s.c., dose reducing the number of writhes by 50%, IA @ dose = inactive at that dose, read-out: ED50; for duration of action: footnote ** to the ED50 value
Description: (A) Analgesic effects upon mice (acetic acid writhing test).
TEST A. ACETIC ACID MOUSE WRITHING TEST
The analgesic effects of test compounds were determined in mice by use of the acetic acid writhing test described by B. J. R. Whittle, Brit. J. Pharmacol., 22:246 (1964). In this test at least three groups of five male CD-1 mice (18-22 g) each were given subcutaneous doses of the test drug dissolved in either distilled water or distilled water acidified with HCl depending on the solubility of the compound. In all cases, 0.4 milliliter of a 0.5% V/V acetic acid in distilled water solution was administered intraperitoneally 15 minutes post drug. The number of writhes in a 20 min. interval beginning 5 minutes after the acetic acid injection were determined and compared with the number of writhes in control groups which had received only acetic acid.
Percent inhibition of writhing was calculated as: [formula]
The ED50 dose, i.e., the dose required to reduce the number of writhes by 50%, was determined graphically from a plot of % inhibition as a probit versus log dose. Confidence limits of 95% were calculated on the basis of those results falling in the range 16-84% inhibition. See Litchfield, J. T. and Wilcoxon, F., J. Pharmacol. Exp. Ther., 96, 99-113, (1949).

[1] = conclusion from Tests A and B, Hydrochloride
[2] = more potent than TR-5222 by a factor

COc1ccc2c(c1)[C@]13CCN(CC4CC4)[C@H](C2)[C@@H]1[C@@H](C)CC(=O)C3 [TR-5119, 17-Cyclopropylmethyl-3-Methoxy-8β-Methylmorphinan-6-one]
narcotic antagonist activity (rats): good activity | AD50 (rats): 1.45 | analgesic activity (mice): good activity | ED50 (mice): 0.24 mg/kg

C[C@H]1CC(=O)C[C@]23CCN(CC4CCC4)[C@H](Cc4ccc(O)cc42)[C@H]13.Cl [TR-5130, 17-Cyclobutylmethyl-3-hydroxy-8β-methylmorphinan-6-one Hydrochloride]
analgesic (agonist)/narcotic antagonist activity profile (rats; conclusion from Tests A and B): mixed agonist/antagonist activity | AD50 (rats): 1.05 | ED50 (mice): 0.11 mg/kg

COc1ccc2c(c1)[C@]13CCN(CC4CCC4)[C@H](C2)[C@@H]1[C@@H](C)CC(=O)C3.Cl [TR-5132, 17-Cyclobutylmethyl-3-methoxy-8β-methylmorphinan-6-one Hydrochloride]
narcotic antagonist activity (rats): good activity | AD50 (rats): 6.4 | analgesic activity (mice): good activity | ED50 (mice): 0.54 mg/kg

COc1ccc2c(c1)[C@]13CCN(CC4CCC4)[C@H](C2)[C@@H]1CCC(=O)C3.Cl [TR-5148, 17-Cyclobutylmethyl-3-methoxymorphinan-6-one Hydrochloride, reference compound]
narcotic antagonist activity (rats): does not exhibit activity as a narcotic antagonist | AD50 (rats): IA @ 10 | analgesic activity (mice): potent analgesic | ED50 (mice): 0.22 mg/kg

COc1ccc2c(c1)[C@]13CCN(CC4CC4)[C@H](C2)[C@@H]1CCC(=O)C3 [TR-5152, 17-Cyclopropylmethyl-3-methoxymorphinan-6-one Hydrochloride, reference compound]
AD50 (rats): 5.4 | ED50 (mice): 0.24 mg/kg

Cl.O=C1CC[C@H]2[C@H]3Cc4ccc(O)cc4[C@@]2(CCN3CC2CCC2)C1 [TR-5153, 17-Cyclobutylmethyl-3-hydroxymorphinan-6-one Hydrochloride, reference compound]
analgesic (agonist)/narcotic antagonist activity profile (rats; [1]): pure agonist; also recorded: pure analgesic | AD50 (rats): IA @ 10 | ED50 (mice): 0.017 mg/kg

O=C1CC[C@H]2[C@H]3Cc4ccc(O)cc4[C@@]2(CCN3CC2CC2)C1 [TR-5160, 17-Cyclopropylmethyl-3-hydroxy morphinan-6-one, reference compound]
AD50 (rats): 2.3 | ED50 (mice): 1.02 mg/kg

COc1ccc2c(c1)[C@]13CCN(CC4CC4)[C@H](C2)[C@@H]1[C@@H](C)[C@H](C)C(=O)C3 [TR-5188, 17-Cyclopropylmethyl-7α,8β-dimethyl-3-methoxy-morphinan-6-oneHydrochloride]
analgesic (agonist)/narcotic antagonist activity profile (rats; conclusion from Tests A and B): mixed analgesic/narcotic antagonist | AD50 (rats): 4.7 | ED50 (mice): 1.03 mg/kg

C[C@@H]1[C@H]2[C@H]3Cc4ccc(O)cc4[C@@]2(CCN3CC2CCC2)CC(=O)[C@H]1C [TR-5195, 17-Cyclobutylmethyl-7α,8β-dimethyl-3-hydroxymorphinan-6-one]
analgesic (agonist)/narcotic antagonist activity profile (rats; conclusion from Tests A and B): analgesic and narcotic antagonist activity | AD50 (rats): 2.0 | ED50 (mice): 0.78 mg/kg

C[C@@H]1[C@H]2[C@H]3Cc4ccc(O)cc4[C@@]2(CCN3CC2CC2)CC(=O)[C@H]1C [TR-5196, 17-Cyclopropylmethyl-7α,8β-dimethyl-3-hydroxy-morphinan-6-one]
AD50 (rats): 0.12 | ED50 (mice): 7.8 mg/kg

CC[C@H]1CC(=O)C[C@]23CCN(CC4CCC4)[C@H](Cc4ccc(O)cc42)[C@H]13.Cl [TR-5200, 17-Cyclobutylmethyl-8β-ethyl-3-hydroxy-morphinan-6-one Hydrochloride]
narcotic antagonist activity (rats): potent activity | AD50 (rats): 0.32 | analgesic activity (mice): potent activity | ED50 (mice): 0.21 mg/kg

CCC[C@H]1CC(=O)C[C@]23CCN(CC4CCC4)[C@H](Cc4ccc(O)cc42)[C@H]13.Cl [TR-5204, 17-Cyclobutylmethyl-3-hydroxy-8β-n-propylmorphinan-6-one Hydrochloride]
analgesic (agonist)/narcotic antagonist activity profile (rats; conclusion from Tests A and B): mixed analgesic/narcotic antagonist | AD50 (rats): 3.10 | narcotic antagonist potency relative to TR-5223 (rats; vs TR-5223): substantially more potent | ED50 (mice): 0.43 mg/kg | analgesic potency relative to TR-5223 (mice; vs TR-5223): substantially more potent

COc1ccc2c(c1)[C@]13CCN(CC4CC4)[C@H](C2)[C@H]1C[C@@H](C)C(=O)C3 [TR-5205, 17-Cyclopropylmethyl-3-methoxy-7β-methyl-isomorphinan-6-one Hydrochloride]
AD50 (rats): 1.2 | ED50 (mice): > 15 mg/kg

O=C1CC[C@@H]2[C@H]3Cc4ccc(O)cc4[C@@]2(CCN3CC2CC2)C1 [TR-5222, 17-Cyclopropylmethyl-3-hydroxy-isomorphinan-6-one Hydrochloride, reference compound]
analgesic (agonist)/narcotic antagonist activity profile (rats; conclusion from Tests A and B): mixed analgesic and narcotic antagonist activity | AD50 (rats): 0.78 | duration of action (mice): short acting | ED50 (mice): 3.11 mg/kg

O=C1CC[C@@H]2[C@H]3Cc4ccc(O)cc4[C@@]2(CCN3CC2CCC2)C1 [TR-5223, 17-Cyclobutylmethyl-3-hydroxy-isomorphinan-6-one Hydrochloride, reference compound]
analgesic (agonist)/narcotic antagonist activity profile (rats; [1]): mixed agonist/antagonist activity; also recorded: mixed analgesic/narcotic antagonist activity | AD50 (rats): 5.0 | mixed agonist/antagonist activity relative to TR-5130 (rats; vs TR-5130, conclusion from Tests A and B): substantially less than that of TR-5130 | narcotic antagonist potency relative to TR-5200 (rats; vs TR-5200): significantly less potent | ED50 (mice): 0.94 mg/kg | analgesic potency relative to TR-5200 (mice; vs TR-5200): significantly less potent

C[C@@H]1C[C@@H]2[C@H]3Cc4ccc(O)cc4[C@@]2(CCN3CC2CC2)CC1=O [TR-5225, 17-Cyclopropylmethyl-3-hydroxy-7β-methyl-isomorphinan-6-one Hydrobromide]
narcotic antagonist potency relative to TR-5222 (rats; [2]): approximately 2 | AD50 (rats): 0.48 | narcotic antagonist potency relative to TR-5205 (rats; vs TR-5205): approximately twice as potent | duration of action (mice): short acting | analgesic potency relative to TR-5222 (mice; [2]): greater than four | ED50 (mice): 0.72 mg/kg | analgesic potency relative to TR-5205 (mice; vs TR-5205): much more potent

COc1ccc2c(c1)[C@]13CCN(CC4CC4)[C@H](C2)[C@H]1[C@H](C)[C@@H](C)C(=O)C3 [TR-5331, 17-Cyclopropylmethyl-7β,8α-dimethyl-3-methoxy-isomorphinan-6-one Hydrochloride]
narcotic antagonist activity (rats): essentially inactive | AD50 (rats): > 10 | analgesic activity (mice): essentially inactive | ED50 (mice): > 10 mg/kg

COc1ccc2c(c1)[C@]13CCN(CC4CCC4)[C@H](C2)[C@H]1[C@H](C)[C@@H](C)C(=O)C3 [TR-5332, 17-Cyclobutylmethyl-7β,8α-dimethyl-3-methoxy-isomorphinan-6-one Hydrochloride]
AD50 (rats): > 10 | ED50 (mice): > 10 mg/kg

CC[C@@H]1[C@H]2[C@H]3Cc4ccc(O)cc4[C@@]2(CCN3CC2CCC2)CC(=O)[C@H]1C [TR-5333, 17-Cyclobutylmethyl-8β-ethyl-3-hydroxy-7α-methyl-morphinan-6-one]
analgesic (agonist)/narcotic antagonist activity profile (rats; conclusion from Tests A and B): both analgesic and narcotic antagonist activity | AD50 (rats): 1.95 | ED50 (mice): 3.3 mg/kg
